For data set [1] the following is noted: in vivo; cited from earlier work.
A further data set relates to morphine-induced rage. To be noted: in an animal; cited from earlier work.
The subject of data set [2] is bowel peristalsis / gastric emptying. Put plainly: postoperative colic (ileus) in a burn patient treated with methylnaltrexone infusion. To be noted: following administration of the drug (unpublished data). It is filed as in vivo, human. An excerpt:
Recent human data support the role of endogenous opioids, including endorphins, in the pathogenesis of postoperative ileus in humans. See Taguchi A., et al., “Selective postoperative inhibition of gastrointestinal opioid receptors,” New Engl. J. Med. 345:935-40, 2001. No reference is made to either equine colic or the etiology of perioperative management of equines or other animals. […] Prior to administration, there had been no evidence of bowel peristalsis and no passage of flatus. See Moss J., et al., “Selective postoperative inhibition of gastrointestinal opioid receptors,” (correspondence) New Engl. J. Med. 346(6):455 (2002).

For data set [3] the following is noted: cited from earlier work.
Data set [4] concerns bowel peristalsis / gastric emptying. To be noted: one burn patient with postoperative colic; infusion 0.3 mg/kg over 15 minutes; during drug administration; cited from earlier work.
The test system of another data set is gut motility. To be noted: β-endorphin homologues from six species; read-out: IC50 on the standard model of gut motility; cited from earlier work.

On to `C[N@+]1(CC2CC2)CC[C@]23c4c5ccc(O)c4O[C@H]2C(=O)CC[C@@]3(O)[C@H]1C5` [methylnaltrexone], for which the “crossing of the blood-brain-barrier” value in data set [1] is listed as “does not cross the blood-brain-barrier”. Also, in the data set with morphine-induced rage, the “severity of morphine-induced rage” value is reported as “minimize the severity”. For the same compound, the gastric residuals result in data set [2] is recorded as “markedly reduced”. In addition, the “absorption after oral administration” value in data set [3] (from the stomach and bowel) is recorded as “rapidly absorbed”. Besides, the “time to initial plasma levels” value in data set [3] (oral administration, non-enteric coated compound) is 5 to 10 min. Besides, in data set [4], the “bowel sounds and flatus” value is “prompt restoration of bowel sounds and flatus”.

Usually IC50 stands for the concentration needed to halve the response being measured. Take “human endorphin: human homologue of β-endorphin, IC50 printed as 'that of humans'”: in the data set with gut motility, the IC50 was 12.2 nM.
